Assay results taken from patent US20250268884A1, “Deuterated Domperidone for Treating Gastroparesis” (CinDome Pharma, Inc., priority 2022, published 2025).

Test system: adults with idiopathic or diabetic gastroparesis
Assay: Safety: adverse events, laboratory values, vital signs, Phase 2a
[1] = 5 mg BID (N = 9), Safety Population

Description: Safety was evaluated through assessments of Aes, vital signs, physical examinations, clinical laboratory evaluations (including prolactin), and ECG findings. Additionally, a single, optional PGx blood sample may have been collected at any time during the subject's participation in the study.
Safety variables included Aes, clinical laboratory results (including prolactin), vital signs, ECGs, and physical examination findings.

## [2H]c1c([2H])c([2H])c2c([nH]c(=O)n2CCCN2CCC(n3c(=O)[nH]c4cc(Cl)ccc43)CC2)c1[2H] [Deudomperidone, 1-{3-[4-(5-chloro-2-oxo-2,3-dihydro-1H-1,3-benzodiazol-1-yl)piperidin-1yl]propyl}-2,3-dihydro(4,5,6,7-D4)-1H-1,3-benzodiazol-2-one]
5 mg BID
  TEAEs reported: 1 TEAE
  other TEAE: abdominal pain lower: 1 subject each
  other study drug-related TEAE: abdominal pain lower: 1 subject each
  study drug-related TEAEs reported: 1 TEAE
  subjects with study drug-related TEAEs: 1 (11.1%) subjects (%)
5 mg BID (N = 9)
  Study drug-related TEAE Abdominal pain lower, %: (11.1) %
  Study drug-related TEAE Blood creatine phosphokinase increased, %: (0.0) %
  Study drug-related TEAE Cardiac disorders, %: (0.0) %
  Study drug-related TEAE Diarrhoea, %: (0.0) %
  Study drug-related TEAE Ear and labyrinth disorders, %: (0.0) %
  Study drug-related TEAE Electrocardiogram QT prolonged, %: (0.0) %
  Study drug-related TEAE Gastrointestinal disorders, %: (11.1) %
  Study drug-related TEAE Headache, %: (0.0) %
  Study drug-related TEAE Investigations, %: (0.0) %
  Study drug-related TEAE Nausea, %: (0.0) %
  Study drug-related TEAE Nervous system disorders, %: (0.0) %
  Study drug-related TEAE Palpitations, %: (0.0) %
  Study drug-related TEAE Tinnitus, %: (0.0) %
  Subjects with any TEAEs, %: 11.1%
  Subjects with any TEAEs, e (events): 1
  Subjects with any study drug-related TEAE, %: 11.1%
  Subjects with any study drug-related TEAE, e (events): 1
  TEAE Abdominal pain lower, %: (11.1) %
  TEAE Arthralgia, %: (0.0) %
  TEAE Back pain, %: (0.0) %
  TEAE Blood creatine phosphokinase increased, %: (0.0) %
  TEAE Cardiac disorders, %: (0.0) %
  TEAE Constipation, %: (0.0) %
  TEAE Decreased appetite, %: (0.0) %
  TEAE Diarrhoea, %: (0.0) %
  TEAE Dyspepsia, %: (0.0) %
  TEAE Ear and labyrinth disorders, %: (0.0) %
  TEAE Electrocardiogram QT prolonged, %: (0.0) %
  TEAE Gastrointestinal disorders, %: (11.1) %
  TEAE Headache, %: (0.0) %
  TEAE Hypoglycaemia, %: (0.0) %
  TEAE Infections and infestations, %: (0.0) %
  TEAE Investigations, %: (0.0) %
  TEAE Metabolism and nutrition disorders, %: (0.0) %
  TEAE Musculoskeletal and connective tissue disorders, %: (0.0) %
  TEAE Nausea, %: (0.0) %
  TEAE Nervous system disorders, %: (0.0) %
  TEAE Palpitations, %: (0.0) %
  TEAE Sinusitis, %: (0.0) %
  TEAE Tinnitus, %: (0.0) %
  TEAE Vomiting, %: (0.0) %
[1]
  Any Aes, % of subjects: (11.1) %
  Any Aes, n subjects: 1
  Any TEAEs by maximum severity: Mild, % of subjects: (11.1) %
  Any TEAEs by maximum severity: Mild, n subjects: 1
  Any TEAEs by maximum severity: Moderate, % of subjects: (0.0) %
  Any TEAEs by maximum severity: Moderate, n subjects: 0
  Any TEAEs by maximum severity: Severe, % of subjects: (0.0) %
  Any TEAEs by maximum severity: Severe, n subjects: 0
  Any TEAEs leading to death, % of subjects: (0.0) %
  Any TEAEs leading to death, n subjects: 0
  Any TEAEs leading to discontinuation, % of subjects: (0.0) %
  Any TEAEs leading to discontinuation, n subjects: 0
  Any TEAEs, % of subjects: 11.1%
  Any TEAEs, e (number of events): 1
  Any TEAEs, n subjects: 1
  Any serious TEAEs, % of subjects: (0.0) %
  Any serious TEAEs, n subjects: 0
  Any study drug-related TEAEs by maximum severity: Mild, % of subjects: (11.1) %
  Any study drug-related TEAEs by maximum severity: Mild, n subjects: 1
  Any study drug-related TEAEs by maximum severity: Moderate, % of subjects: (0.0) %
  Any study drug-related TEAEs by maximum severity: Moderate, n subjects: 0
  Any study drug-related TEAEs by maximum severity: Severe, % of subjects: (0.0) %
  Any study drug-related TEAEs by maximum severity: Severe, n subjects: 0
  Any study drug-related TEAEs leading to discontinuation, % of subjects: (0.0) %
  Any study drug-related TEAEs leading to discontinuation, n subjects: 0
  Any study drug-related TEAEs, % of subjects: (11.1) %
  Any study drug-related TEAEs, n subjects: 1
  Any study drug-related serious TEAEs, % of subjects: (0.0) %
  Any study drug-related serious TEAEs, n subjects: 0
5 mg BID, Safety Population
  subjects who experienced a TEAE: 1 (11.1%) subjects (%)
10 mg BID
  TEAE diarrhoea: 3 (10.0%) subjects (%)
  TEAE electrocardiogram QT prolonged: 1 (3.3%) subjects (%)
  TEAE hypoglycaemia: 1 (3.3%) subjects (%)
  TEAEs reported: 11 TEAEs
  other TEAEs, each: nausea, vomiting, blood creatine phosphokinase increased, decreased appetite, palpitations, tinnitus: 1 subject each
  other study drug-related TEAEs, each: nausea, blood creatine phosphokinase increased, palpitations, tinnitus: 1 subject each
  study drug-related TEAE diarrhoea: 2 (6.7%) subjects (%)
  study drug-related TEAEs reported: 6 TEAEs
  subjects with study drug-related TEAEs: 4 (13.3%) subjects (%)
10 mg BID (N = 30)
  Study drug-related TEAE Abdominal pain lower, %: (0.0) %
  Study drug-related TEAE Blood creatine phosphokinase increased, %: (3.3) %
  Study drug-related TEAE Cardiac disorders, %: (3.3) %
  Study drug-related TEAE Diarrhoea, %: (6.7) %
  Study drug-related TEAE Ear and labyrinth disorders, %: (3.3) %
  Study drug-related TEAE Electrocardiogram QT prolonged, %: (0.0) %
  Study drug-related TEAE Gastrointestinal disorders, %: (10.0) %
  Study drug-related TEAE Headache, %: (0.0) %
  Study drug-related TEAE Investigations, %: (3.3) %
  Study drug-related TEAE Nausea, %: (3.3) %
  Study drug-related TEAE Nervous system disorders, %: (0.0) %
  Study drug-related TEAE Palpitations, %: (3.3) %
  Study drug-related TEAE Tinnitus, %: (3.3) %
  Subjects with any TEAEs, %: 20.0%
  Subjects with any TEAEs, e (events): 11
  Subjects with any study drug-related TEAE, %: 13.3%
  Subjects with any study drug-related TEAE, e (events): 6
  TEAE Abdominal pain lower, %: (0.0) %
  TEAE Arthralgia, %: (0.0) %
  TEAE Back pain, %: (0.0) %
  TEAE Blood creatine phosphokinase increased, %: (3.3) %
  TEAE Cardiac disorders, %: (3.3) %
  TEAE Constipation, %: (0.0) %
  TEAE Decreased appetite, %: (3.3) %
  TEAE Diarrhoea, %: (10.0) %
  TEAE Dyspepsia, %: (0.0) %
  TEAE Ear and labyrinth disorders, %: (3.3) %
  TEAE Electrocardiogram QT prolonged, %: (3.3) %
  TEAE Gastrointestinal disorders, %: (13.3) %
  TEAE Headache, %: (0.0) %
  TEAE Hypoglycaemia, %: (3.3) %
  TEAE Infections and infestations, %: (0.0) %
  TEAE Investigations, %: (6.7) %
  TEAE Metabolism and nutrition disorders, %: (6.7) %
  TEAE Musculoskeletal and connective tissue disorders, %: (0.0) %
